For assay [1], the system named is add_P1 (RNA, riboswitch) GGGAAGAUAUAAUCCUAAUGAUAUGGUUUGGGAGUUUCUACCAAGAGCCUUAAACUCUUGAUUAUCUUCUCUGUCGCUUUAUCCCAAAUUUUAUAAAGAGAAGACUCAUGAAU
In words: ITC. The settings on record: 100 mM KCl, 10 mM MgCl2; 10 mM HEPES, pH 7.5, room temperature.

The subject of assay [2] is add_FL (RNA, riboswitch) GGGAAGAAACGCUUCAUAUAAUCCUAAUGAUAUGGUUUGGGAGUUUCUACCAAGAGCCUUAAACUCUUGAUUAUGAAGUCUGUCGCUUUAUCCCAAAUUUUAUAAAGAGAAGACUCAUGAAU
The experiment in a line: ITC. The settings on record: 100 mM KCl, 10 mM MgCl2; 10 mM HEPES, pH 7.5, room temperature.

As usually defined, the Kd is the free concentration of one partner at which half of the binding sites on the other are occupied at equilibrium, for simple one-to-one binding.

Take `Nc1ncnc2[nH]cnc12`: the values for the dissociation constant (Kd) in assay [1] and in assay [2] were 67.6 ± 0.53 nM and 90.0 ± 0.96 nM, respectively.

The values are drawn from PMC8652005 (2021).
